{"source": "patent US20220267390A1", "about": "“MPS MODIFIED PEPTIDES AND USE THEREOF” (The Regents of the University of California, priority 2019, published 2022)", "key": {"primary IPF fibroblasts": {"test_system": "primary IPF fibroblasts", "test": "Combination of nintedanib and MPS peptide, cell viability by MTT, Chou and Talalay CI", "assay_type": "cell-based, human", "conditions": "nintedanib 62.5-2000 nM and/or MPS 6.25-200 μM, 72 hours", "description": "FIGS. 12A-12E: (FIGS. 12A-12B) Combinatorial effect of MPS peptide with nintedanib on fibroblasts isolated from two IPF patients. Cells were treated with various closes of nintedanib (62.5-2000 nM) and/or MPS peptide (6.25-200 μM) for 72 hours, respectively. After single ([…]) or combined ([…]) treatment, cell viability was determined by MTT assays. (FIG. 12C) The Chou and Talalay CI (combination index) method was utilized to evaluate the therapeutic interactions between nintedanib and MPS peptide using the Calcusyn software. Gray line, additive effect of the combination of MPS peptide and the drug is represented at CI=1. (FIG. 12D) Cells were individually treated with 1 μM nintedanib, 100 μM MPS peptide or combinations of 1 μM nintedanib and 100 μM MPS peptide. After 48 hours, cell viability was determined by the trypan blue exclusion assay (n+3; *, p<0.05). […] Molecular basis of MPS peptide and its potential for increasing nintedanib efficacy. […] A kinetic assay confirmed that this peptide binds PIP2 with a dissociation constant of 17.64 nM (FIG. 10B). As expected, a decrease of PIP3 pools in whole cell lysates of MPS-treated IPF fibroblasts was observed (FIG. 10C), supporting the notion that MPS peptide is able to inhibit AKT activation through trapping PIP2. […]"}, "α-SMA and phospho-AKT": {"test_system": "α-SMA and phospho-AKT", "test": "Western blot of α-SMA and phospho-AKT in primary IPF fibroblasts", "assay_type": "cell-based, human", "conditions": "nintedanib 1000 nM, 48 hours", "description": "FIGS. 11A-11B: (FIG. 11A) Western blot analysis of α-SMA and phospho-AKT in primary IPF fibroblasts with nintedanib (1000 nM) and/or MPS (100 μM) for 48 hours. (FIG. 11B) A proposed model of activating the PI3K/AKT pathway after nintedanib treatment. An arrow: a direct interaction. Western blot analyses and the preparations of whole-cell lysates have been previously described^14, 16, 27 For whole cell lysates, cells were lysed in a lysis buffer (50 mM Tris-HCl (pH 7.4), 1% Triton X-100, 10% glycerol, 150 mM NaCl, 1 mM EDTA, 20 μg/ml leupeptin, 1 mM PMSF and 20 μg/ml aprotinin) and separated by SDS-PAGE. Immunoblotting was conducted with appropriate antibodies followed by chemiluminescent detection. For immunofluorescent staining, after an antigen retrieval step, tissue slides were reacted with antibodies against FITC-labeled α-SMA and TRITC-conjugated phospho-MARCKS, and nuclei were demarcated with DAPI staining. The cells were mounted onto slides and visualized using fluorescence microscopy (model Axiovert 100; Carl Zeiss, Oberkochen, Germany) or a Zeiss LSM510 laser-scanning confocal microscope image system."}, "IPF fibroblast cells": {"test_system": "IPF fibroblast cells", "test": "cells", "assay_type": "cell-based, human", "description": "(§1) FIG. 14: Comparison of MPS-12042 (SEQ ID NO: 45) versus know tyrosine kinase inhibitor (TKLs) on the treatment of IPF fibroblast cells. Both normal and IPF lung fibroblast cells were treated with various drugs. After 72 hours, cells were subjected to MTT assays and IC50 for each drug was determined.\nHuman primary fibroblast cells were obtained from airway tissues provided from the UC Davis Medical Hospital (Sacramento, Calif.) with consent. The protocol for human tissue procurement and usage were periodically reviewed and approved by the University Human Subject Research Review Committee. Primary fibroblast cell lines, IPF-1 and IPF-2 cells, were established from IPF patients. Cells were obtained from lung biopsies and the diagnosis of IPF was supported by patient history, physical examination, pulmonary function tests, and typical high-resolution chest computed tomography findings of IPF. […] All patients fulfilled the criteria for the diagnosis of IPF as established by the American Thoracic Society and European Respiratory Society. Non-fibrotic primary control adult human lung fibroblast lines, Normal-1 and Normal-2 cells were used. These lines were established from normal lung tissue or histologically normal lung tissue adjacent to carcinoid tumor. The IPF cell line, LL97A, was purchased from the American Type Culture Collection (ATCC) (Manassas, Va.). Lung fibroblast lines were cultured in high-glucose DMEM or RPMI-1640 medium with 10% fetal bovine serum and 1% penicillin-streptomycin at 37° C. in a humidified atmosphere of 5% CO2. Fibroblasts were used between passages 4 and 8. Cells were characterized as fibroblasts as described^26.\nCells were seeded onto 96-well plates at a density of 5-10×10^3 cells per well and cultured for the indicated treatment. Cell proliferation was evaluated using a MTS assay kit (Promega, Madison, Wis.). Twenty microliters of the combined MTS/PMS solution was added into each well, incubated for 3 hours at 37° C., and the absorbance was measured at 490 nm by using an ELISA reader. For Trypan blue test, cells were plated on 12-well plates and treated with the indicated chemotherapeutic agents. After 72 hours, both attached and detached cells were collected and then stained with 0.2% trypan blue (0.1% final concentration), and the number of trypan blue-positive and -negative cells was counted using a haemocytometer under low-power microscopy. For colony-forming assays, 200 cells were seeded in each well of six-well plates. IPF-1 or IPF-2 primary cells were treated with peptides at the indicated concentrations for 10 days. Colonies were stained using 0.001% crystal violet and the number of colonies with a diameter greater than 0.5 mm was counted under an inverted microscope."}, "normal fibroblasts": {"test_system": "normal fibroblasts", "test": "Normal lung fibroblast proliferation (MTS/MTT assay)", "assay_type": "cell-based, human", "conditions": "1 μM", "description": "as §1\nHuman primary fibroblast cells were obtained from airway tissues provided from the UC Davis Medical Hospital (Sacramento, Calif.) with consent. The protocol for human tissue procurement and usage were periodically reviewed and approved by the University Human Subject Research Review Committee. Primary fibroblast cell lines, IPF-1 and IPF-2 cells, were established from IPF patients. […]\nCells were seeded onto 96-well plates at a density of 5-10×10^3 cells per well and cultured for the indicated treatment. Cell proliferation was evaluated using a MTS assay kit (Promega, Madison, Wis.). Twenty microliters of the combined MTS/PMS solution was added into each well, incubated for 3 hours at 37° C., and the absorbance was measured at 490 nm by using an ELISA reader. […] After 72 hours, both attached and detached cells were collected and then stained with 0.2% trypan blue (0.1% final concentration), and the number of trypan blue-positive and -negative cells was counted using a haemocytometer under low-power microscopy. […]"}, "[1]": {"test_system": "bleomycin-induced pulmonary fibrosis", "test": "Bleomycin-induced pulmonary fibrosis", "assay_type": "in vivo, C57BL/6J mice", "conditions": "7 mg/kg i.p. every two days, against nintedanib (28 mg/kg) and MPS peptide (28 mg/kg)", "description": "FIGS. 20A and 20B show suppressive effects of MPS peptide on pulmonary fibrosis in vivo. C57BL/6 mice were intraperitoneally given either PBS, nintedanib (28 mg/kg), MPS peptide (28 mg/kg) or MPS-12042 (7 mg/kg) at the dosage of every two days after 9 days of intratracheal exposure with one shot of saline or bleomycin (33 μg in […] of saline, n=5). (FIG. 20A) Representative Masson trichrome and immunohistochemical staining of phospho-MARCKS (Ser159/163) and phospho-AKT (Ser473) (n=6). (FIG. 20B) Hydroxyproline level in the left lung of mice as described above was determined by a hydroxyproline ELISA assay (mean±SD, *p<0.05).\nMPS peptide potentially serves as an antifibrotic agent in bleomycin-induced pulmonary fibrosis. Bleomycin remains the standard agent for induction of experimental pulmonary fibrosis in animals^23. Thus, 8-week-old female C57BL/6J mice received saline or bleomycin intratracheally (33 μg in […] of saline) as previously described^23. Lung specimens from bleomycin- or saline-treated mice were collected and subjected to immunofluorescence staining. […] Next, lung fibroblast cells isolated from saline- or bleomycin-treated mice (two mice fibroblast cell lines were gifts from Dr. Sem H. Phan, University of Michigan School of Medicine, MI) were incubated with either 100 μM control or MPS peptide for 48 hours. […]"}, "H1650 cells": {"test_system": "H1650 cells", "assay_type": "cell-based", "description": "IC50 (half maximal inhibitory concentration; μM) values in lung cancer cells. […] The residues marked in red/bold are D-isoforms of amino acids (SEQ ID NOS: 57, 48-54, 40-42 45 and 47 in order of appearance).\nMolecular basis of MPS peptide and its potential for increasing nintedanib efficacy. […] A kinetic assay confirmed that this peptide binds PIP2 with a dissociation constant of 17.64 nM (FIG. 10B). As expected, a decrease of PIP3 pools in whole cell lysates of MPS-treated IPF fibroblasts was observed (FIG. 10C), supporting the notion that MPS peptide is able to inhibit AKT activation through trapping PIP2. In view of adverse effects of the current IPF therapeutic nintedanib^9, 10, there is an urgent clinical need to improve the efficacy of such treatment in IPF. Since the TGF-β receptor is not a direct target of nintedanib, targeting an element of TGF-β signaling in tandem with nintedanib administration circumvents the shortcomings of nintedanib monotherapy. […] Based on the above observations, it is assumed that TGF-β-directed phospho-MARCKS is a bypass mechanism of activating PI3K/AKT signaling (FIG. 11B); therefore, it seems reasonable that MARCKS inhibition by MPS treatment may improve nintedanib efficacy, permitting lower doses of nintedanib to be used. To this end, the possibility of a synergistic interaction between MPS and nintedanib in order to circumvent the shortcomings of nintedanib monotherapy was tested. […] Furthermore, the Chou and Talalay CI (combination index) method^25 was used to evaluate the therapeutic interactions between nintedanib and MPS peptide. […] Particularly, the values were lower than 1 at ED50, approximately 1 at ED75, and above 1 at ED90 (data not shown). Thus, the combination effect was dose-dependently correlated with the components, and therefore low dose nintedanib in combination with low dose of MPS presents a synergistic effect on cell proliferation. […] On the basis of the sequences of MPS peptide, the rearrangement of PIP2-binding sites in this peptide were designed and synthesized with the intention of enhancing the efficacy and stability of the MPS peptide. FIG. 13 lists the sequences of various MPS derivatives. In light of the cleavage sites of various proteases and PIP2 binding motifs, Applicant replaced some L-isoform amino acids with D-isoform and these peptides were named as MPS-12042 and MPS-22026. To further validate the efficacy of the above MPS derivatives, Applicant performed a dose-course analysis of H1650 cells undergoing each MPS derivative treatment."}}, "note": "pIC50: −log10 of the molar value. Read-outs that look alike come from different tables or passages of the source. Where a SMILES comes first, the peptide text is derived from it. [ ]: non-standard residue; d: D form."}
{"smiles": "COC(=O)c1ccc2c(c1)NC(=O)/C2=C(\\Nc1ccc(N(C)C(=O)CN2CCN(C)CC2)cc1)c1ccccc1", "note": "[nintedanib, reference compound]", "values": [{"measurement": "Cell viability", "setting": "primary IPF fibroblasts", "value": "decreased"}, {"measurement": "phospho-AKT", "setting": "α-SMA and phospho-AKT", "value": "no change"}, {"measurement": "α-SMA expression", "setting": "α-SMA and phospho-AKT", "value": "increase"}, {"measurement": "pIC50", "setting": "IPF fibroblast cells; Homo sapiens, IPF fibroblast cells, 72 hours, read-out: IC50 inhibiting IPF fibroblast proliferation", "value": "4.80 to 4.86"}]}
{"smiles": "CC(C)C[C@@H](NC(=O)[C@@H](CCCCN)NC(=O)[C@@H](Cc1ccccc1)NC(=O)[C@H](C)NC(=O)[C@H](CCCCN)NC(=O)[C@@H](CCCCN)NC(=O)[C@@H](Cc1ccccc1)NC(=O)[C@H](C)NC(=O)[C@@H](Cc1ccccc1)NC(=O)[C@@H](CCCNC(=N)N)NC(=O)[C@H](CCCCN)NC(=O)[C@H](CCCCN)NC(=O)[C@H](CCCCN)NC(=O)[C@H](CCCCN)NC(=O)[C@@H](N)CCCCN)C(=O)N[C@@H](C)C(=O)NCC(=O)N[C@H](Cc1ccccc1)C(=O)N[C@H](C)C(=O)N[C@H](Cc1ccccc1)C(=O)N[C@H](CCCCN)C(=O)N[C@@H](CCCCN)C(=O)N[C@@H](CC(N)=O)C(=O)N[C@H](CCCCN)C(=O)N[C@@H](CCCCN)C(=O)O", "note": "[MPS-12042] (H-KKKKK[dR][dF]A[dF][dK]KA[dF][dK][dL]AG[dF][dA][dF][dK]KN[dK]K-OH; N-terminus and C-terminus assumed)", "values": [{"measurement": "decreased cell proliferation", "setting": "normal fibroblasts", "value": "not in normal fibroblasts"}, {"measurement": "attenuating phospho-MARCKS and phospho-AKT, reducing overall fibrosis and extracellular matrix deposition in mouse lungs", "setting": "[1]", "value": "superior efficacy"}, {"measurement": "pIC50", "setting": "H1650 cells", "value": 5.22}, {"measurement": "decreased cell proliferation", "setting": "IPF fibroblast cells; 1 μM, IPF fibroblast", "value": 50, "unit": "%"}, {"measurement": "pIC50", "setting": "IPF fibroblast cells; 72 h", "value": "5.82 to 6.00"}]}
